Source: PubChem BioAssay (NCI)
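These data come from cells grown in 96-well plates and exposed to compound for 48 hours at five concentrations. GI50: concentration for 50% inhibition of growth. TGI marks complete inhibition of growth.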

Key:
Experiment in all cases: DTP human tumour cell line panel, 48 h
TK-10 renal = test system: TK-10 renal
SK-MEL-5 melanoma = test system: SK-MEL-5 melanoma
UACC-257 melanoma = test system: UACC-257 melanoma
RPMI-8226 leukemia = test system: RPMI-8226 leukemia
SF-268 CNS = test system: SF-268 CNS
786-0 renal = test system: 786-0 renal
PC-3 prostate = test system: PC-3 prostate
SK-MEL-2 melanoma = test system: SK-MEL-2 melanoma
SF-295 CNS = test system: SF-295 CNS
NCI-H23 lung = test system: NCI-H23 lung
OVCAR-8 ovarian = test system: OVCAR-8 ovarian
COLO 205 colon = test system: COLO 205 colon
U251 CNS = test system: U251 CNS
SK-OV-3 ovarian = test system: SK-OV-3 ovarian
LOX IMVI melanoma = test system: LOX IMVI melanoma
SNB-75 CNS = test system: SNB-75 CNS
SNB-19 CNS = test system: SNB-19 CNS
IGROV1 ovarian = test system: IGROV1 ovarian
HT29 colon = test system: HT29 colon
ACHN renal = test system: ACHN renal
SR leukemia = test system: SR leukemia
HS 578T breast = test system: HS 578T breast
UO-31 renal = test system: UO-31 renal
SN12C renal = test system: SN12C renal
A549 NSCLC = test system: A549 NSCLC
HCT-15 colon = test system: HCT-15 colon
CAKI-1 renal = test system: CAKI-1 renal
HCT-116 colon = test system: HCT-116 colon
MCF7 breast = test system: MCF7 breast
NCI-H460 lung = test system: NCI-H460 lung
SW-620 colon = test system: SW-620 colon
OVCAR-3 ovarian = test system: OVCAR-3 ovarian
T-47D breast = test system: T-47D breast
UACC-62 melanoma = test system: UACC-62 melanoma
MDA-MB-231 breast = test system: MDA-MB-231 breast
NCI-H226 lung = test system: NCI-H226 lung
M14 melanoma = test system: M14 melanoma
SF-539 CNS = test system: SF-539 CNS
HOP-92 NSCLC = test system: HOP-92 NSCLC
CCRF-CEM leukemia = test system: CCRF-CEM leukemia
OVCAR-4 ovarian = test system: OVCAR-4 ovarian
NCI-H522 lung = test system: NCI-H522 lung
MALME-3M melanoma = test system: MALME-3M melanoma
MDA-MB-435 = test system: MDA-MB-435
EKVX NSCLC = test system: EKVX NSCLC
RXF 393 renal = test system: RXF 393 renal
MOLT-4 leukemia = test system: MOLT-4 leukemia
A498 renal = test system: A498 renal
DU-145 prostate = test system: DU-145 prostate
BT-549 breast = test system: BT-549 breast
SK-MEL-28 melanoma = test system: SK-MEL-28 melanoma
HOP-62 NSCLC = test system: HOP-62 NSCLC
NCI/ADR-RES ovarian = test system: NCI/ADR-RES ovarian
K-562 leukemia = test system: K-562 leukemia
HCC-2998 colon = test system: HCC-2998 colon
KM12 colon = test system: KM12 colon
OVCAR-5 ovarian = test system: OVCAR-5 ovarian

C=C1C(=O)O[C@H]2[C@H]1CC/C(Cn1cc(Cn3ccc4cc(Cl)ccc43)nn1)=C\CC[C@@]1(C)O[C@@H]21
GI50 (TK-10 renal): 1670 nM | TGI (TK-10 renal): 3110 nM | GI50 (SK-MEL-5 melanoma): 1730 nM | TGI (SK-MEL-5 melanoma): 3320 nM | GI50 (UACC-257 melanoma): 1700 nM | TGI (UACC-257 melanoma): 3610 nM | GI50 (RPMI-8226 leukemia): 796 nM | TGI (RPMI-8226 leukemia): 3030 nM | GI50 (SF-268 CNS): 1650 nM | TGI (SF-268 CNS): 3130 nM | GI50 (786-0 renal): 1810 nM | TGI (786-0 renal): 3570 nM | GI50 (PC-3 prostate): 1300 nM | TGI (PC-3 prostate): 2870 nM | GI50 (SK-MEL-2 melanoma): 1610 nM | TGI (SK-MEL-2 melanoma): 3720 nM | GI50 (SF-295 CNS): 3980 nM | TGI (SF-295 CNS): 17000 nM | GI50 (NCI-H23 lung): 1990 nM | TGI (NCI-H23 lung): 4460 nM | GI50 (OVCAR-8 ovarian): 1660 nM | TGI (OVCAR-8 ovarian): 3570 nM | GI50 (COLO 205 colon): 1690 nM | TGI (COLO 205 colon): 3500 nM | GI50 (U251 CNS): 1690 nM | TGI (U251 CNS): 3350 nM | GI50 (SK-OV-3 ovarian): 13900 nM | TGI (SK-OV-3 ovarian): 26900 nM | GI50 (LOX IMVI melanoma): 1310 nM | TGI (LOX IMVI melanoma): 2880 nM | GI50 (SNB-75 CNS): 1270 nM | TGI (SNB-75 CNS): 4520 nM | GI50 (SNB-19 CNS): 1970 nM | TGI (SNB-19 CNS): 4490 nM | GI50 (IGROV1 ovarian): 1420 nM | TGI (IGROV1 ovarian): 2900 nM | GI50 (HT29 colon): 1830 nM | TGI (HT29 colon): 4460 nM | GI50 (ACHN renal): 1240 nM | TGI (ACHN renal): 2500 nM | GI50 (SR leukemia): 279 nM | TGI (SR leukemia): 1250 nM | GI50 (HS 578T breast): 2500 nM | TGI (HS 578T breast): 6680 nM | GI50 (UO-31 renal): 1090 nM | TGI (UO-31 renal): 2290 nM | GI50 (SN12C renal): 1500 nM | TGI (SN12C renal): 3200 nM | GI50 (A549 NSCLC): 10200 nM | TGI (A549 NSCLC): 24800 nM | GI50 (HCT-15 colon): 1140 nM | TGI (HCT-15 colon): 2660 nM | GI50 (CAKI-1 renal): 1240 nM | TGI (CAKI-1 renal): 2500 nM | GI50 (HCT-116 colon): 1500 nM | TGI (HCT-116 colon): 3120 nM | GI50 (MCF7 breast): 1250 nM | TGI (MCF7 breast): 3020 nM | GI50 (NCI-H460 lung): 3270 nM | TGI (NCI-H460 lung): 10300 nM | GI50 (SW-620 colon): 1130 nM | TGI (SW-620 colon): 2780 nM | GI50 (OVCAR-3 ovarian): 1480 nM | TGI (OVCAR-3 ovarian): 2830 nM | GI50 (T-47D breast): 1720 nM | TGI (T-47D breast): 4320 nM | GI50 (UACC-62 melanoma): 1410 nM | TGI (UACC-62 melanoma): 2780 nM | GI50 (MDA-MB-231 breast): 1360 nM | TGI (MDA-MB-231 breast): 2820 nM | GI50 (NCI-H226 lung): 1590 nM | TGI (NCI-H226 lung): 3030 nM | GI50 (M14 melanoma): 1650 nM | TGI (M14 melanoma): 3630 nM | GI50 (SF-539 CNS): 1570 nM | TGI (SF-539 CNS): 2970 nM | GI50 (HOP-92 NSCLC): 489 nM | TGI (HOP-92 NSCLC): 1740 nM | GI50 (CCRF-CEM leukemia): 338 nM | TGI (CCRF-CEM leukemia): 1180 nM | GI50 (OVCAR-4 ovarian): 1530 nM | TGI (OVCAR-4 ovarian): 3020 nM | GI50 (NCI-H522 lung): 1260 nM | TGI (NCI-H522 lung): 2870 nM | GI50 (MALME-3M melanoma): 1580 nM | TGI (MALME-3M melanoma): 3130 nM | GI50 (MDA-MB-435): 1560 nM | TGI (MDA-MB-435): 2980 nM | GI50 (EKVX NSCLC): 1730 nM | TGI (EKVX NSCLC): 3780 nM | GI50 (RXF 393 renal): 1170 nM | TGI (RXF 393 renal): 2460 nM | GI50 (MOLT-4 leukemia): 599 nM | TGI (MOLT-4 leukemia): 3160 nM | GI50 (A498 renal): 3390 nM | TGI (A498 renal): 11700 nM | GI50 (DU-145 prostate): 1550 nM | TGI (DU-145 prostate): 2890 nM | GI50 (BT-549 breast): 1610 nM | TGI (BT-549 breast): 3300 nM | GI50 (SK-MEL-28 melanoma): 1730 nM | TGI (SK-MEL-28 melanoma): 3270 nM | GI50 (HOP-62 NSCLC): 4900 nM | TGI (HOP-62 NSCLC): 20100 nM | GI50 (NCI/ADR-RES ovarian): 2540 nM | TGI (NCI/ADR-RES ovarian): 9090 nM | GI50 (K-562 leukemia): 649 nM | TGI (K-562 leukemia): 3100 nM | GI50 (HCC-2998 colon): 1980 nM | TGI (HCC-2998 colon): 3920 nM | GI50 (KM12 colon): 2010 nM | TGI (KM12 colon): 4240 nM | GI50 (OVCAR-5 ovarian): 1650 nM | TGI (OVCAR-5 ovarian): 3540 nM
